Measurements reported in US20180113115A1, “SCREENING ASSAYS BASED ON MAG AND/OR ABHD6 FOR SELECTING INSULIN SECRETION PROMOTING AGENT” (VAL-CHUM, LIMITED PARTNERSHIP, priority 2010, published 2018).

Legend:
[1] = biological target: TRPV1-R (Homo sapiens, UniProt Q8NER1); conditions: both in vitro and in vivo; cited from earlier work
[2] = tested on: TRPV1-R; conditions: cited from earlier work
[3] = tested on: β-cell; conditions: inhibition of β-cell plasma membrane DAG lipase activity; cited from earlier work
[4] = tested on: rat islets; conditions: lipolysis inhibition by pan-lipase inhibitors; cited from earlier work
[5] = tested on: INS 832/13 cells; test: Insulin secretion measurement in INS 832/13 cells (static incubation); assay type: cell-based
Procedure: (§1) INS 832/13 cells (Hohmeir et al.) were cultured at 37° C. in a humidified atmosphere containing 5% CO2 in RPMI 1640 with sodium bicarbonate, supplemented with 10% (v/v) fetal calf serum (Wisent), 10 mM HEPES, pH 7.4, 2 mM L-glutamine, 1 mM sodium pyruvate and 50 μM β-mercaptoethanol (complete RPMI). Cells were grown to 80% confluence. Media were changed to RPMI 1640 containing 3 mM glucose supplemented as the complete RPMI 24 h prior to the experiments. Insulin secretion incubations were conducted in Krebs-Ringer bicarbonate buffer containing 10 mM HEPES, pH 7.4 (KRBH).
INS 832/13 cells were washed in KRBH containing 1 mM glucose and 0.5% defatted BSA (KRBH 1G/0.5% BSA) and pre-incubated for 45 min in KRBH 1G/0.5% BSA in presence of pharmacological agents (at indicated concentrations) or vehicle (DMSO). […] When examining the effect of 2-AG, it was added to cells at 0 to 1 μM concentration at 2 mM and 10 mM glucose. Insulin secretion from INS 832/13 cells was measured from either 45-min or 2-h static incubations in KRBH containing various glucose concentrations, 0.5% defatted BSA and pharmacological agents or vehicle, with or without 35 mM KCl or 0.3 mM palmitate, as specified.

[6] = tested on: INS 832/13 cells; test: Effect of lipase inhibitors on [U-14C]-glucose incorporation into lipids; assay type: cell-based; conditions: 1 and 10 mM [U14C]-glucose, 50 μM orlistat
Procedure: as §1
INS 832/13 cells were incubated overnight at 11 mM [U-^14C]-glucose in RPMI medium in a CO2-incubator in order to pre-label all the lipids in the cells. Then the cells were washed in KRBH (1 mM [U-^14C]-glucose) and pre-incubated for 45 min in KRBH at 1 mM [U-^14C]-glucose to bring metabolism to basal level. After this, cells were further incubated for 2 h in KRBH at 1 and 10 mM [U-^14C]-glucose and the indicated inhibitors. […] Then the cells were washed rapidly and flash-frozen in liquid nitrogen and extracted for lipids. Lipids were separated by TLC and the associated radioactivity was quantified. Neutral lipids were separated on boric acid/silica gel-TLC, with two solvent systems, first petroleum ether: diethyl ether: acetic acid (70:30:1), followed by second solvent system up to half of the plates, chloroform: acetone: acetic acid (60:40:1). Phospholipids were separated with a solvent system, chloroform: methanol: water (65:25:4).

[7] = tested on: INS 832/13 cells; test: [1-14C]-arachidonic acid incorporation into 1-AG and 2-AG; assay type: cell-based
Procedure: FIG. 2A and FIG. 2B illustrate that glucose stimulates the incorporation of [1-^14C]-arachidonic acid into 1-AG and 2-AG in INS 832/13 cells. Incorporation of [1-^14C]-arachidonic acid (nmol/mg protein) is shown in function of various compounds. Results are shown for low (2 mM, 2G, white) and high (10 mM, 10G, dotted) glucose concentration. […] (n=6; *** p<0.001). Results are shown in nmol/mg protein for different cellular compounds (PL=phospholipids, 1-AG=1-monoarachidonylglycerol, 2-AG=2-monoarachidonylglycerol, NEFA=non-esterified fatty acids, 1,2-DAG=1,2-diacylglycerol, 1,3-DAG=1,3-diacylglycerol, TG=triacylglycerol).

[8] = tested on: INS832/13 cell membrane extracts; test: 1-OG (MAG) hydrolysis by cell membrane extracts, released oleic acid by HPLC; assay type: biochemical; conditions: 50 μM 1-oleoylglycerol, 1 h at 30° C.
Procedure: 8 μg of […] cell membrane extracts were incubated with 50 μM of MAG (1-oleoylglycerol) and the indicated inhibitors for 1 h at 30° C. Released oleic acid was measured by HPLC after Dole's extraction and derivatization with bromoacetaminophenone.

[9] = biological target: ABHD12; conditions: cited from earlier work

Chain of TRPV1-R (Homo sapiens, UniProt Q8NER1) (Q8NER1 whole entry): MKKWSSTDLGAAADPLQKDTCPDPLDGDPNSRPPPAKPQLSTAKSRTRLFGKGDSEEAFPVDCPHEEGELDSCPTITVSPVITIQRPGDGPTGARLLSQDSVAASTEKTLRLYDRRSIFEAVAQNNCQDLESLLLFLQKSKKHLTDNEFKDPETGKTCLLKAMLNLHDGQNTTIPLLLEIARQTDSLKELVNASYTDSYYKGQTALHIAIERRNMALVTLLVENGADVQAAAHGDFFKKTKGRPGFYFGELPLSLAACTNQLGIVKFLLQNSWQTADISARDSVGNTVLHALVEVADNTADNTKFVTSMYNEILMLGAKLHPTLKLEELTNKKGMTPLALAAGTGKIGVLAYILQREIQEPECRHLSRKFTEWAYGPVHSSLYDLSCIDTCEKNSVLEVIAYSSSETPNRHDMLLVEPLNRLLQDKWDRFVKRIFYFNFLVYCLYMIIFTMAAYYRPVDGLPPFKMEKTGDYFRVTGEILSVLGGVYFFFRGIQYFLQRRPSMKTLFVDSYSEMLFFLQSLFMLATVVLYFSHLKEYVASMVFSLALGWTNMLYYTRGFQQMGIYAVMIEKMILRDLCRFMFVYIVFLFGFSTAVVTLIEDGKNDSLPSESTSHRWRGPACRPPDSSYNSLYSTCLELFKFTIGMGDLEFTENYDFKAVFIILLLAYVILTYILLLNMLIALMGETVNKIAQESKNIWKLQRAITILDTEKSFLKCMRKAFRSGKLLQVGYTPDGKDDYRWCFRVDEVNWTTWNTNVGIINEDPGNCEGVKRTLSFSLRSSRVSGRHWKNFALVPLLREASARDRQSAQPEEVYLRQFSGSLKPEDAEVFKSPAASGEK

COc1cc(CNC(=O)CCCC/C=C/C(C)C)ccc1O [capsaicin]
insulin secretion and Ca2+ influx [1]: elevate insulin secretion and Ca^2+ influx
insulin resistance ([2]; administration of capsaicin): decrease insulin resistance
plasma insulin levels ([2]; in vivo): elevates plasma insulin levels

O=C(NCCCCCCNC(=O)ON=C1CCCCC1)ON=C1CCCCC1 [RHC80267]
GSIS [3]: lowered GSIS

Cc1cc(C)[nH]n1 [3,5-dimethylpyrazole]
GSIS [4]: curtailed GSIS

CCCCCCCCCCC[C@@H](C[C@@H]1OC(=O)[C@H]1CCCCCC)OC(=O)[C@H](CC(C)C)NC=O [orlistat, tetrahydrolipstatin]
insulin secretion ([5]; 100 μM orlistat, 2 and 10 mM glucose): curtails insulin secretion
glucose-stimulated insulin secretion (GSIS) ([5]; increasing glucose (5 and 10 mM), 10 μM WWL70, 50 μM orlistat, 1 μM JZL184): strongly inhibited GSIS
release of [U14C]-free fatty acids (FFA) ([6]; 1 μM JZL184): almost completely lowered this release
glucose incorporation into phospholipids ([6]; 10 μM WWL70): None of the lipase inhibitors had any significant effect
glucose incorporation into 1-monoacylglycerol (1-MAG) ([6]; 10 μM WWL70, 1 μM JZL184): significantly lowered
glucose incorporation into 2-monoacylglycerol (2-MAG) ([6]; 10 μM WWL70, 1 μM JZL184): no effect
glucose incorporation into diacylglycerol (DAG) ([6]; 10 μM WWL70, 1 μM JZL184): Neither of the inhibitors had any effect
glucose incorporation into triglycerides (TG) ([6]; 10 μM WWL70, 1 μM JZL184): TG accumulated
[1-14C]-arachidonic acid incorporation into 1-AG and 2-AG [7]: curtails
1-OG hydrolysis activity (released oleic acid) [8]: inhibited the 1-OG hydrolysis activity
Ki [9]: < 100 nM
GSIS [4]: curtailed GSIS
